# From patent publication US20070122908A1, “Molecular Delivery to Cells Using Aspirin-Related Compounds” (UNIVERSITY OF SOUTH FLORIDA, priority 2005, published 2007)
# Tests used:
# B16-F10 cells [1] = test: Delivery of calcein to B16-F10 cells with or without electroporation, spectrofluorometric reading of cell lysate; type: cell-based, mouse
# Experimental: The effects of salicylic acid (“SA”) on the delivery of calcein to B16-F10 cells using electroporation was studied. Three identical experiments were carried out. […] All cells were exposed to 120 μM calcein. In addition, cells in some samples were exposed to one of three different concentrations of salicyclic acid (1 mM, 5 mM, or 10 mM) with pH values of 6.70, 6.32, and 3.85, respectively. Pulses with one of four different field strengths were also applied (500, 750, 1000, or 1385 V/cm) to certain samples. Salicyclic acid concentration and field strength were experimental variables; however, some cells were not exposed to applied fields or salicyclic acid for comparison/control purposes.
# Delivery of calcein using aspirin (acetylsalicylic acid or “ASA”) was studied. […] The same range of pulsing conditions was used and the variables were identical for the sample treatment.
# Calcein delivery by electroporation using acetic acid (“AA”) as an effector was studied. The set of 3 replicate experiments included three concentrations of AA, each with a different pH (4.40, 5.36, or 6.42). The pH values of the three solutions of acetic acid were matched to those of ASA for the purpose of determining if AA is the derivative in ASA that enhances the delivery of calcein. The three concentrations of the AA solutions in PBS were similar, which was about 0.15%, and varied slightly in order to establish the desired pH value. In addition, one of three electric field strengths were applied to cells (500, 750. or 1000 V/cm). Some cells were not exposed to applied fields or any concentration of AA for purposes of comparison and control.
# B16-F10 mouse melanoma cells (ATCC#:CRL-6475) were obtained and grown in McCoy's Media (Cellgro Mediatech, Inc., Herndon. VA), adjusted to contain 10% fetal bovine serum (Cellgro Mediatech, Inc.) and (25 mg) gentamicin 50 mg/mL (Mediatech, Inc.) and were incubated in 5% CO2 at 37° C. Serum was essential for many reasons. It provided hormonal factors that stimulated cell growth and function. It also contains essential proteins, amino acids, minerals, and lipids. Gentamicin is an antibiotic used as a preventative measure to help reduce microbial growth and contamination.
# Cells were prepared for experiments by first harvesting by trypsinization and then washing 3 times by centrifugation. Cells were centrifuged (5810R, Eppendorf, Westbury, N.Y.) at 220× g for 5 minutes at 37° C. and resuspended in approximately 2.5 ml of PBS for each wash. A sample of cells was then diluted in 0.9% sodium chloride (APP, Schaumburg, Ill.) and 0.4% trypan blue stain (Cellgro Mediatech, Inc.). Trypan blue is an indicator in which the membranes of non-viable cells are penetrated and can be distinguished from the viable cells. Using a hemacytometer (Hausser Scientific, Horsham, Pa.), the viable and nonviable cells were counted. The number of cells per milliliter was computed by multiplying the number of cells counted per square millimeter×the dilution (when used)×10,000 (conversion factor).
# Experiments were conducted using 48-well polystyrene tissue culture plates (BD Falcon. Franklin Lakes, N.J.). Each well held approximately 1.4 ml of liquid with a surface area of 0.75 cm^2. The depth and diameter of each well was 18 mm and 10 mm, respectively.
# Under aseptic conditions, 150μl of the sterile gelatin solution was added to each well and let stand for 1 hour. The gelatin was then aspirated from each of the wells and air dried for 5 minutes. 500μl of McCoy's Media was added to the treated wells in addition to 7.5×10^4 viable cells and incubated at 37° C. for 18 hours before treatment.
# The electrode shown in FIG. 2 was specially designed for all experimentation in these studies and was similar to the design mentioned above. The electrode consisted of 6 stainless steel electrodes, equally spaced at 60° intervals around a 0.7 cm diameter circle.
# B16-F10 cells [2] = conditions: mouse, pH 4.4
# Experimental: The trypan blue test was used to determine membrane integrity. Trypan blue dye will only penetrate into cells that have porous membranes. […] The protocol used was similar to the methods described for the delivery of calcein. After one hour of exposure at 37° the cells were washed three times with 500 μl aliquots of PBS. Liquid from the last wash was carefully aspirated, and then filled with 500μl of growth media.
# For the purpose of this study, optimal testing conditions were used to treat B16-F10 cells to conclude the extent of reversible permeation.
# Due to the large surface area of the wells, the cells were physically counted by observing 7 out of 21 fields of view along the horizontal diameter of each well at a magnification of 400× (see FIG. 5). The recovery of the membranes after exposure to each treating condition was expressed as a percentage of live cells remaining after each hour.
# In order to distinguish the viable cells from the dead, a 0.4% trypan blue solution in PBS was used. 150 μl of the solution was added to each well for 1 minute, and then the cells were counted using the described method. Each test condition was studied at 1 hour intervals ranging from 1 hour to 4 hours. In addition, membrane recovery was examined 24 hours post treatment.
structure (smiles),measurement,setting,value
"O=C(O)c1ccccc1O [SA, salicylic acid]",calcein delivery compared to samples exposed to calcein alone,"B16-F10 cells [1]; 1, 5 or 10 mM SA (pH 6.70, 6.32, 3.85), 120 μM calcein, no applied electric field",did not augment the delivery
same,fluorescent magnitude compared to samples treated with calcein and pulses (no salicylic acid),"B16-F10 cells [1]; 1, 5 or 10 mM SA, 120 μM calcein, electrical pulses 500-1385 V/cm",not significantly higher
"CC(=O)O [AA, acetic acid]",decline in the number of cells with intact membranes,B16-F10 cells [2]; 1 h,17%
same,cells that excluded trypan blue dye,B16-F10 cells [2]; 24 h,86%
same,cells with intact membranes,B16-F10 cells [2]; 24 h,90%
same,average membrane integrity,B16-F10 cells [2],80-95%
same,fluorescence magnitude compared to samples not exposed to AA,"B16-F10 cells [1]; AA about 0.15% in PBS, pH 5.36 or 6.42, with or without pulses",failed to show a significant increase
same,fluorescent data compared to AA alone (no pulses),B16-F10 cells [1]; AA lowest pH solution (pH 4.40) in combination with electric fields,even higher
same,mean fluorescence magnitude,"B16-F10 cells [1]; AA pH 4.40, 500 V/cm",12.77
same,increase in fluorescence magnitude vs samples not exposed to AA at same field,"B16-F10 cells [1]; AA pH 4.40, 500 V/cm, p<0.0001",3 fold
same,increase in fluorescence magnitude vs samples not exposed to AA at same field,"B16-F10 cells [1]; AA pH 4.40, 750 V/cm, p=0.0002",2.25 fold
same,increase in fluorescence magnitude vs samples not exposed to AA at same field,"B16-F10 cells [1]; AA pH 4.40, 1000 V/cm, p<0.0001",3.5 fold
same,increase in mean fluorescence vs control (no AA or pulses),"B16-F10 cells [1]; AA pH 4.40 alone, no pulses",8.2 fold
same,mean fluorescence magnitude,"B16-F10 cells [1]; AA pH 4.40 alone, no pulses",1.04
"CC(=O)Oc1ccccc1C(=O)O [ASA, acetylsalicylic acid]",fluorescence magnitude compared to calcein alone (no ASA),"B16-F10 cells [1]; 1 mM or 5 mM ASA alone (pH 6.39, 5.40), no pulses",did not result in a significant increase
same,increase in fluorescence magnitude relative to calcein at same field (no ASA),"B16-F10 cells [1]; 10 mM ASA, 500 V/cm, p<0.0001",3.7 fold
same,increase in fluorescence magnitude relative to calcein at same field (no ASA),"B16-F10 cells [1]; 10 mM ASA, 750 V/cm, p 0.0011",3.82 fold
same,increase in fluorescence magnitude relative to calcein at same field (no ASA),"B16-F10 cells [1]; 10 mM ASA, 1000 V/cm, p 0.0014",3.57 fold
same,increase in fluorescence magnitude relative to calcein at same field (no ASA),"B16-F10 cells [1]; 10 mM ASA, 1385 V/cm, p 0.0066",3.18 fold
same,"increase in internalized calcein vs control (calcein, no ASA or pulses)","B16-F10 cells [1]; 10 mM ASA, no pulses, p<0.0001",5 fold
same,mean fluorescence magnitude compared to samples exposed to electric fields alone (no ASA),"B16-F10 cells [1]; 1 and 5 mM ASA, with electric fields",not significantly different
same,average fluorescent magnitude,"B16-F10 cells [1]; calcein in 10 mM ASA (pH 4.40), no pulses",4.28 (SEM=0.63)
